Measured values reported in patent publication US12441768B2, “Compositions and methods for treating endometriosis” (EndoMet Biosciences, Inc., priority 2018, dated 2025).
Where a SMILES comes first, the peptide text is derived from it.

Experiments:
[1] = biological target: Wnt-responsive promoter (TCF/LEF); test: Wnt-dependent luciferase reporter assay; type: cell-based, murine
Method in brief: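 Murine 3T3 fibroblasts carrying a TCF/LEF-driven luciferase reporter, stimulated with Wnt3a in the presence of increasing peptide concentrations or vehicle. Luminescence inhibition gave EC50 values in uM.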

[2] = % Viability non-Wnt responsive cells
β-catenin = biological target: T1, β-catenin (Homo sapiens, UniProt P35222); test: KD50 measurement using competitive fluorescence polarization (FP) with labelled TCF4; type: binding; details: fluorescence polarization, β-catenin; for Kd: read-out: β-Cat FP KD
T1 sequence (P35222 1-781): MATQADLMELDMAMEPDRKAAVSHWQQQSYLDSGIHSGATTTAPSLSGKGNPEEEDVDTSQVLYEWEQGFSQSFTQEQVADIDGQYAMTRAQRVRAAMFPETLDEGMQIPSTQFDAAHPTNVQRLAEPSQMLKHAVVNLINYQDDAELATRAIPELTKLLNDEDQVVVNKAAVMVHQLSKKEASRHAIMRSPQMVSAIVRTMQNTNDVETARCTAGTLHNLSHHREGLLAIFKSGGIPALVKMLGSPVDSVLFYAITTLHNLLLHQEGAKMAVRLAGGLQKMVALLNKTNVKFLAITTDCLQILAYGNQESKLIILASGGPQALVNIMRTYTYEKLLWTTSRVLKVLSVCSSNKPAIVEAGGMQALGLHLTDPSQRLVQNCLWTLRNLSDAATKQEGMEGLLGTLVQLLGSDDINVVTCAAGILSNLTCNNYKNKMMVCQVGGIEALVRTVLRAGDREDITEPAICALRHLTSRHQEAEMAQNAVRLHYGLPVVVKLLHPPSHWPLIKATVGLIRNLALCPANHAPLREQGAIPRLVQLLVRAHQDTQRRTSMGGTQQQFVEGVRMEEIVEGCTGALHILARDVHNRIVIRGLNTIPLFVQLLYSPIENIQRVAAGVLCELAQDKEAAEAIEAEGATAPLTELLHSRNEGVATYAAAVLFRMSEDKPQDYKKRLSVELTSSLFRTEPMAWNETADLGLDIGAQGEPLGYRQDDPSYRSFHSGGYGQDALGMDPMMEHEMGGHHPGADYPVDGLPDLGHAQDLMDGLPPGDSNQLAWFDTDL
Method in brief: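 Labelled TCF4 (5 nM) mixed with 100 nM β-catenin at room temperature; inhibitor added as serial dilutions from 10 nM to 30 uM. Polarization read at excitation 470 nm/emission 520 nm; binding displacement lowers polarization. Three independent runs.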

Row | EC50 [1] | β-Cat FP Hill slope (β-catenin) | Kd (β-catenin) | SMILES | viability [2]
1 | > 30 µM | 1.07 | 0.4 to 1 µM | CC[C@H](C)[C@@H]1NC(=O)[C@H](CC(C)C)NC(=O)[C@H](Cc2ccccc2)NC(=O)[C@H](Cc2c[nH]c3ccccc23)NC(=O)[C@H](CCSC)NC(=O)[C@@H](NC(C)=O)CCCCNC(=O)CC[C@@H](C(=O)O)NC(=O)[C@H](Cc2c[nH]c3ccccc23)NC(=O)[C@H](Cc2ccccc2)NC(=O)[C@H](CS)NC1=O [compound 186] (HELM PEPTIDE1{[ac].K.M.W.F.L.I.C.F.W.E}$PEPTIDE1,PEPTIDE1,2:R3-11:R3$$$V2.0) | 96.4%
2 | 7.5 to 15 µM | 0.7 | 1 to 10 µM | CC[C@H](C)[C@@H]1NC(=O)[C@H](CC(C)C)NC(=O)[C@H](Cc2ccccc2)NC(=O)[C@H](Cc2c[nH]c3ccccc23)NC(=O)[C@@H](NC(C)=O)CCCCNC(=O)CC[C@@H](C(=O)O)NC(=O)[C@H](Cc2c[nH]c3ccccc23)NC(=O)[C@H](C)NC(=O)[C@H](CO)NC1=O [compound 187] (HELM PEPTIDE1{[ac].K.W.F.L.I.S.A.W.E}$PEPTIDE1,PEPTIDE1,2:R3-10:R3$$$V2.0) | 90.3%
3 | < 7.5 µM | 0.7 | 10 to 30 µM | CC[C@H](C)[C@@H]1NC(=O)[C@H](CC(C)C)NC(=O)[C@H]([C@@H](C)CC)NC(=O)[C@H](Cc2c[nH]c3ccccc23)NC(=O)[C@@H](NC(C)=O)CCCCNC(=O)CC[C@@H](C(=O)O)NC(=O)[C@H](Cc2c[nH]c3ccccc23)NC(=O)[C@H](C)NC(=O)[C@H](CO)NC1=O [compound 188] (HELM PEPTIDE1{[ac].K.W.I.L.I.S.A.W.E}$PEPTIDE1,PEPTIDE1,2:R3-10:R3$$$V2.0) | 97.6%
4 | < 7.5 µM | 1.69 | 0.4 to 1 µM | CC[C@H](C)[C@@H]1NC(=O)[C@H](CC(C)C)NC(=O)[C@H](Cc2ccccc2)NC(=O)[C@H](Cc2c[nH]c3ccccc23)NC(=O)[C@H](CCSC)NC(=O)CCCCCNC(=O)C[C@@H](C(=O)O)NC(=O)[C@H](Cc2c[nH]c3ccccc23)NC(=O)[C@H](Cc2ccccc2)NC(=O)[C@H](CS)NC1=O [compound 189] (HELM PEPTIDE1{[O=C(CCCCCN[*:1])[*:2]].M.W.F.L.I.C.F.W.D}$PEPTIDE1,PEPTIDE1,1:R1-10:R3$$$V2.0) | 99.5%
5 | 7.5 to 15 µM | 1.3 | 0.4 to 1 µM | CC[C@H](C)[C@@H]1NC(=O)[C@H](CC(C)C)NC(=O)[C@H](Cc2ccccc2)NC(=O)[C@H](Cc2c[nH]c3ccccc23)NC(=O)[C@H](CCSC)NC(=O)CCCNC(=O)C[C@@H](C(=O)O)NC(=O)[C@H](Cc2c[nH]c3ccccc23)NC(=O)[C@H](C)NC(=O)[C@H](CS)NC1=O [compound 191] (HELM PEPTIDE1{[O=C(CCCN[*:1])[*:2]].M.W.F.L.I.C.A.W.D}$PEPTIDE1,PEPTIDE1,1:R1-10:R3$$$V2.0) | 99.1%
6 | < 7.5 µM | 1.33 | < 0.4 µM | CC[C@H](C)[C@@H]1NC(=O)[C@H](CC(C)C)NC(=O)[C@H](Cc2ccccc2)NC(=O)[C@H](Cc2c[nH]c3ccccc23)NC(=O)[C@H](CCSC)NC(=O)CCCCCNC(=O)C[C@@H](C(=O)O)NC(=O)[C@H](Cc2c[nH]c3ccccc23)NC(=O)[C@H](C)NC(=O)[C@H](CS)NC1=O [compound 192] (HELM PEPTIDE1{[O=C(CCCCCN[*:1])[*:2]].M.W.F.L.I.C.A.W.D}$PEPTIDE1,PEPTIDE1,1:R1-10:R3$$$V2.0) | 103%
7 | < 7.5 µM | 3 | 0.4 to 1 µM | CC[C@H](C)[C@H](NC(=O)[C@H](CC(C)C)NC(=O)[C@H](Cc1ccccc1)NC(=O)[C@H](Cc1c[nH]c2ccccc12)NC(C)=O)C(=O)N[C@@H](CS)C(=O)N[C@@H](Cc1ccccc1)C(=O)N[C@@H](Cc1c[nH]c2ccccc12)C(=O)NCC(=O)O [compound 194] (Ac-WFLICFWG-OH) | 106%
8 | < 7.5 µM | 3 | < 0.4 µM | CC[C@H](C)[C@H](NC(=O)[C@H](CC(C)C)NC(=O)[C@@H](NC(=O)[C@H](Cc1c[nH]c2ccccc12)NC(C)=O)[C@@H](C)CC)C(=O)N[C@@H](CO)C(=O)N[C@@H](Cc1ccccc1)C(=O)N[C@@H](Cc1c[nH]c2ccccc12)C(=O)NCC(=O)O [compound 195] (Ac-WILISFWG-OH) | 105%
9 | < 7.5 µM | 2.58 | 0.4 to 1 µM | CC[C@H](C)[C@H](NC(=O)[C@H](CC(C)C)NC(=O)[C@H](Cc1ccccc1)NC(=O)[C@H](Cc1c[nH]c2ccccc12)NC(C)=O)C(=O)N[C@@H](C)C(=O)N[C@@H](Cc1ccccc1)C(=O)N[C@@H](Cc1c[nH]c2ccccc12)C(=O)NCC(=O)O [compound 196] (Ac-WFLIAFWG-OH) | 105%
10 | < 7.5 µM | 1.52 | 0.4 to 1 µM | CC[C@H](C)[C@H](NC(=O)[C@H](CC(C)C)NC(=O)[C@H](Cc1ccccc1)NC(=O)[C@H](Cc1c[nH]c2ccccc12)NC(=O)[C@H](CCSC)NC(C)=O)C(=O)N[C@@H](CS)C(=O)N[C@@H](Cc1ccccc1)C(=O)N[C@@H](Cc1c[nH]c2ccccc12)C(=O)NCCCC(=O)O [compound 197] (HELM PEPTIDE1{[ac].M.W.F.L.I.C.F.W.[O=C(O)CCCN[*:1]]}$$$$V2.0) | 89.8%
11 | < 7.5 µM | 2.18 | 0.4 to 1 µM | CC[C@H](C)[C@H](NC(=O)[C@H](CC(C)C)NC(=O)[C@H](Cc1ccccc1)NC(=O)[C@H](Cc1c[nH]c2ccccc12)NC(=O)[C@H](CCSC)NC(C)=O)C(=O)N[C@@H](CS)C(=O)N[C@@H](Cc1ccccc1)C(=O)N[C@@H](Cc1c[nH]c2ccccc12)C(=O)NCC(=O)O [compound 198] (Ac-MWFLICFWG-OH) | 81.4%
12 | < 7.5 µM | 0.7 | 0.4 to 1 µM | CC[C@H](C)[C@@H]1NC(=O)[C@H](CC(C)C)NC(=O)[C@H](Cc2ccccc2)NC(=O)[C@H](Cc2c[nH]c3ccccc23)NC(=O)[C@@H](NC(C)=O)CCCCNC(=O)CC[C@@H](C(=O)O)NC(=O)[C@H](Cc2c[nH]c3ccccc23)NC(=O)[C@H](Cc2ccccc2)NC(=O)[C@H](CO)NC1=O [compound 199] (HELM PEPTIDE1{[ac].K.W.F.L.I.S.F.W.E}$PEPTIDE1,PEPTIDE1,2:R3-10:R3$$$V2.0) | 89.8%
13 | < 7.5 µM | 0.7 | 1 to 10 µM | CC[C@H](C)[C@@H]1NC(=O)[C@H](CC(C)C)NC(=O)[C@H](Cc2ccccc2)NC(=O)[C@H](Cc2c[nH]c3ccccc23)NC(=O)[C@@H](NC(C)=O)CCCCNC(=O)CC[C@@H](C(=O)O)NC(=O)[C@H](Cc2c[nH]c3ccccc23)NC(=O)[C@H](Cc2ccccc2)NC(=O)[C@H](C)NC1=O [compound 200] (HELM PEPTIDE1{[ac].K.W.F.L.I.A.F.W.E}$PEPTIDE1,PEPTIDE1,2:R3-10:R3$$$V2.0) | 81.4%
14 | 22.5 to 30 µM | 0.7 | 1 to 10 µM | CC[C@H](C)[C@@H]1NC(=O)[C@H](CC(C)C)NC(=O)[C@H](Cc2ccccc2)NC(=O)[C@H](Cc2c[nH]c3ccccc23)NC(=O)[C@@H](N)CCCCNC(=O)CC[C@@H](C(=O)O)NC(=O)[C@H](Cc2c[nH]c3ccccc23)NC(=O)[C@H](Cc2ccccc2)NC(=O)[C@H](C)NC1=O [compound 201] (HELM PEPTIDE1{K.W.F.L.I.A.F.W.E}$PEPTIDE1,PEPTIDE1,1:R3-9:R3$$$V2.0) | 60.1%
15 | 22.5 to 30 µM |  | > 30 µM | CC[C@H](C)[C@@H]1NC(=O)[C@H](CC(C)C)NC(=O)[C@H](Cc2ccccc2)NC(=O)[C@H](Cc2c[nH]c3ccccc23)NC(=O)[C@@H](N)CCCCNC(=O)C[C@@H](C(=O)O)NC(=O)[C@H](Cc2c[nH]c3ccccc23)NC(=O)[C@H](C)NC(=O)[C@H](CO)NC1=O [compound 202] (HELM PEPTIDE1{K.W.F.L.I.S.A.W.D}$PEPTIDE1,PEPTIDE1,1:R3-9:R3$$$V2.0) | 92.1%
16 | 7.5 to 15 µM |  | > 30 µM | CC[C@H](C)[C@@H]1NC(=O)[C@H](CC(C)C)NC(=O)[C@H](CC2CCCCC2)NC(=O)[C@H](Cc2c[nH]c3ccccc23)NC(=O)[C@@H](N)CCCCNC(=O)C[C@@H](C(=O)O)NC(=O)[C@H](Cc2c[nH]c3ccccc23)NC(=O)[C@H](C)NC(=O)[C@H](CO)NC1=O [compound 203] (HELM PEPTIDE1{K.W.[Cha].L.I.S.A.W.D}$PEPTIDE1,PEPTIDE1,1:R3-9:R3$$$V2.0) | 98%
